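Grown in 96-well plates, cells were treated for 48 hours with each compound at five concentrations. Insufficient inhibition: endpoint recorded as highest concentration tested. GI50: concentration for 50% inhibition of growth.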 Activity calls are given as the source filed them. Rule as the data show it: active = GI50 up to about 1.1 µM and inactive = higher. Where only a bound is given, the exact number is not on record here.

Here are results for ten molecules from ChEMBL document CHEMBL1201862, “PubChem BioAssay data set” (2004).

Assay in all cases: NCI-60 cell line screen, 48 h
The subject of test [1] is A498.
Test [2] concerns CAKI-1.
Test [3] deals with HL-60.
Test [4] relates to HT-29.
The subject of test [5] is Hs-578T.
The subject of test [6] is IGROV-1.
In test [7] the test system is KM12.
Test [8] relates to M14.
The subject of test [9] is MCF7.
The test system of test [10] is MDA-MB-435.
Test [11] deals with NCI-H460.
The subject of test [12] is NCI-H522.
For test [13], the system named is OVCAR-3.
The subject of test [14] is OVCAR-5.
Test [15] deals with RXF 393.
Test [16] deals with SK-MEL-2.
The test system of test [17] is SN12C.
Test [18] has as its system SR.
In test [19] the test system is SW-620.
In test [20] the test system is TK-10.

`COC(=O)C1OC(O[C@H]2CC[C@]3(C)[C@H]4CC=C5[C@@H]6CC(C)(C)CC[C@]6(C(=O)OC6OCC(O)C(O)C6OC6OC(C)C(OC7OCC(O)C(O)C7O)C(OC7OCC(O)(CO)C7O)C6O)[C@H](O)C[C@@]5(C)[C@]4(C)CC[C@H]3C2(C)C)C(O)C(O)C1O` (stereo not given in full): the GI50 in test [1] is 1.76 µM (inactive); in test [2], 4.69 µM (inactive); in test [3], 2.35 µM (inactive); in test [4] it was 2.54 µM (inactive); in test [5], 11.9 µM (inactive); in test [6], 12.1 µM (inactive). Further, the GI50 in test [7] was 2.88 µM (inactive); in test [8], 2.82 µM (inactive); in [9], 1.38 µM (inactive); in test [10], 1.89 µM (inactive); in [11] it was 16.3 µM (inactive); in [12] it was 2.14 µM (inactive). For the same molecule, the GI50 in test [13] is 8.63 µM (inactive); in [14] it was 3.97 µM (inactive); in test [15], 10.9 µM (inactive); in test [16], 2.56 µM (inactive); in test [17], 1.85 µM (inactive); in test [18] it was 2.08 µM (inactive). Also, the GI50 in test [19] was 6.28 µM (inactive); in test [20] it was 15.9 µM (inactive).
In the case of `NCCN(CCN)/[N+]([O-])=N/O`, the GI50 in [1], in test [2], in test [3], in test [4], in test [5] and in [6] was > 100 µM (inactive) each time. In addition, the GI50 is > 100 µM (inactive) in [7]; 72.8 µM (inactive) in test [8]; 47.4 µM (inactive) in test [9]; > 100 µM (inactive) in test [10]; 69.3 µM (inactive) in test [11]; 93.3 µM (inactive) in [12]. In addition, the GI50 in test [13] is > 100 µM (inactive); in test [14], > 100 µM (inactive); in test [15], > 100 µM (inactive); in [16], > 100 µM (inactive); in test [17] it was > 100 µM (inactive); in test [18], 91.2 µM (inactive). The GI50 in test [19] and in [20] was > 100 µM (inactive) throughout.
Take `COC1=CC(=O)c2c(c(-c3csc(C)n3)cn2C)C1=O`: the GI50 in test [1] is 22.5 µM (inactive); in test [2], 29.3 µM (inactive); in test [3] it was 2.13 µM (inactive); in test [4], 23.1 µM (inactive); in test [5], 21.6 µM (inactive); in [6], 20.7 µM (inactive). Also, the GI50 in test [7] was 22.8 µM (inactive); in test [8] it was 5.58 µM (inactive); in test [9] it was 21.7 µM (inactive); in test [10], 13.8 µM (inactive); in [11] it was 3.43 µM (inactive); in [12] it was 18.5 µM (inactive). The GI50 in test [13] was 9.14 µM (inactive); in test [14], 49.5 µM (inactive); in test [15] it was 18.3 µM (inactive); in [16], 17.1 µM (inactive); in [17] it was 22.1 µM (inactive); in [18], 23.3 µM (inactive). Also, the GI50 is 35.9 µM (inactive) in test [19] and 29.9 µM (inactive) in test [20].
Consider `C1CCCN(NC2=NCCO2)CC1`, for which the GI50 in test [1], in test [2], in test [3], in [4], in test [5] and in test [6] was > 100 µM (inactive) each time. In addition, the GI50 in test [7], in test [8], in [9], in test [10], in [11] and in test [12] was > 100 µM (inactive) each time. The GI50 in [13], in [14], in test [15], in test [16], in test [17] and in [18] was > 100 µM (inactive) throughout. Moreover, the GI50 in [19] and in test [20] was > 100 µM (inactive) each time.
As to `CCCCCN(CCCCC)CC(C)(C)C(O)c1ccc(OC)c2ccccc12` (stereo not given), the GI50 in [1] is 14.3 µM (inactive); in [2], 11.6 µM (inactive); in [3], 3.77 µM (inactive); in test [4], 2.01 µM (inactive); in test [5], 16.6 µM (inactive); in [6], 2.59 µM (inactive). In addition, the GI50 was 8.81 µM (inactive) in test [7]; 1.4 µM (inactive) in test [8]; 5.13 µM (inactive) in [9]; 10.8 µM (inactive) in test [10]; 3.4 µM (inactive) in test [11]; 6.79 µM (inactive) in test [12]. Moreover, the GI50 in [13] was 8.34 µM (inactive); in test [14], 11.9 µM (inactive); in test [15] it was 7.78 µM (inactive); in test [16] it was 18.2 µM (inactive); in test [17] it was 11.5 µM (inactive); in test [18], 2.07 µM (inactive). Also, the values for the GI50 in [19] and in test [20] were 10 µM (inactive) and 7.98 µM (inactive), respectively.
As for `CO/N=C1\CC(C)N2C(=O)C(C(C)C)NC(=O)C(NC(=O)c3c4nc5c(C(=O)NC6C(=O)NC(C(C)C)C(=O)N7C(C)CC(O)C7C(=O)N(C)CC(=O)N(C)C(C(C)C)C(=O)OC6C)ccc(C)c5oc-4c(C)c(=O)c3N)C(CO)OC(=O)C(C)N(C)C(=O)CN(C)C(=O)C12` (stereo not given), the GI50 is 1.13 µM (inactive) in [1]; 4.54 µM (inactive) in test [2]; 0.555 µM (active) in test [3]; 0.526 µM (active) in [4]; 0.906 µM (active) in [5]; 0.191 µM (active) in [6]. The GI50 in [7] was 0.877 µM (active); in [8], 2.26 µM (inactive); in [9], 0.34 µM (active); in test [10], 0.824 µM (active); in [11], 0.098 µM (active); in test [12], 0.249 µM (active). The GI50 in test [13] is 1.42 µM (inactive); in [14], 6.92 µM (inactive); in test [15], 0.865 µM (active); in test [16] it was 0.308 µM (active); in test [17] it was 0.416 µM (active); in test [18], 0.0184 µM (active). The GI50 is 0.346 µM (active) in test [19] and 5.48 µM (inactive) in test [20].
On to `COc1ccc(-c2cs/c(=N\c3ccccc3)n2CC(O)c2ccc([N+](=O)[O-])cc2)cc1` (stereo not given), for which the GI50 in test [1], in [2], in test [3], in test [4], in test [5] and in [6] was > 100 µM (inactive) in each case. Moreover, the GI50 is > 100 µM (inactive) in [7]; > 100 µM (inactive) in [8]; > 63.8 µM (inactive) in test [9]; > 100 µM (inactive) in [10]; > 100 µM (inactive) in test [11]; > 100 µM (inactive) in [12]. Besides, the GI50 is > 100 µM (inactive) in [13]; > 100 µM (inactive) in test [14]; > 100 µM (inactive) in test [15]; > 100 µM (inactive) in [16]; > 100 µM (inactive) in [17]; 4.25 µM (inactive) in test [18]. For the same molecule, the GI50 in [19] and in [20] was > 100 µM (inactive) in each case.
On to `N[C@@H]1CCN(c2c(F)cc3c(=O)c(C(=O)O)cn4c3c2Oc2c-4ccc3c2ccc2ccccc23)C1`, for which the GI50 was 11.9 µM (inactive) in [1]; 6.53 µM (inactive) in test [2]; 5.16 µM (inactive) in [3]; 0.241 µM (active) in test [4]; 10.8 µM (inactive) in test [5]; 0.413 µM (active) in test [6]. The GI50 in test [7] is 4.38 µM (inactive); in [8], 5.55 µM (inactive); in [9] it was 0.667 µM (active); in test [10], 3.03 µM (inactive); in test [11], 0.396 µM (active); in test [12] it was 3.18 µM (inactive). Also, the GI50 in test [13] is 21.5 µM (inactive); in test [14], 2.86 µM (inactive); in test [15] it was 1.2 µM (inactive); in [16], 7.8 µM (inactive); in test [17], 3.37 µM (inactive); in test [18], 0.225 µM (active). The GI50 in test [19] is 0.671 µM (active); in [20], 2.38 µM (inactive).
As to `Clc1ccc(NCc2nnc(COc3ccc(OCc4nnc(CNc5ccc(Cl)cc5)o4)c(Cl)c3)o2)cc1`, the GI50 is 28.4 µM (inactive) in [1]; 28.7 µM (inactive) in test [2]; 3.52 µM (inactive) in test [3]; 27.2 µM (inactive) in test [4]; 28.1 µM (inactive) in test [5]; 17.2 µM (inactive) in test [6]. Moreover, the GI50 was 26.9 µM (inactive) in test [7]; > 100 µM (inactive) in test [8]; 17.5 µM (inactive) in [9]; 18.5 µM (inactive) in [10]; 42.6 µM (inactive) in test [11]; 10.6 µM (inactive) in [12]. Moreover, the GI50 is 29.7 µM (inactive) in [13]; > 100 µM (inactive) in test [14]; 47.3 µM (inactive) in test [15]; 14 µM (inactive) in [16]; 43.5 µM (inactive) in [17]; 0.303 µM (active) in test [18]. Moreover, the GI50 in [19] is 38.2 µM (inactive); in test [20], 56.9 µM (inactive).
Turning to `O=C1c2cccnc2C(=O)C2C3C=CC(C3)C12` (stereo not given), the GI50 is 21.2 µM (inactive) in [1]; 14.4 µM (inactive) in test [2]; 1.74 µM (inactive) in test [3]; 27.2 µM (inactive) in test [4]; 9.66 µM (inactive) in [5]; 10.6 µM (inactive) in [6]. Moreover, the GI50 is 14.5 µM (inactive) in test [7]; 13.3 µM (inactive) in test [8]; 3.52 µM (inactive) in test [9]; 2.25 µM (inactive) in test [10]; 3.49 µM (inactive) in test [11]; 3.27 µM (inactive) in test [12]. In addition, the GI50 in test [13] was 13.5 µM (inactive); in [14] it was 18.3 µM (inactive); in test [15], 2.69 µM (inactive); in test [16], 5.08 µM (inactive); in test [17] it was 12.8 µM (inactive); in test [18], 2.11 µM (inactive). Also, the values for the GI50 in test [19] and in test [20] were 4.41 µM (inactive) and 18 µM (inactive), respectively.
